Biological target: T1, human ferroportin (Homo sapiens, UniProt Q9NP59)
T1 construct: luciferase reporter (probably NanoLuc, inferred from the Nano-Glo Luciferase Assay System read-out); expressed in transfected cells; host or cells: CHO cells, stably transfected, expression induced with doxycycline
T1 sequence (Q9NP59 1-571): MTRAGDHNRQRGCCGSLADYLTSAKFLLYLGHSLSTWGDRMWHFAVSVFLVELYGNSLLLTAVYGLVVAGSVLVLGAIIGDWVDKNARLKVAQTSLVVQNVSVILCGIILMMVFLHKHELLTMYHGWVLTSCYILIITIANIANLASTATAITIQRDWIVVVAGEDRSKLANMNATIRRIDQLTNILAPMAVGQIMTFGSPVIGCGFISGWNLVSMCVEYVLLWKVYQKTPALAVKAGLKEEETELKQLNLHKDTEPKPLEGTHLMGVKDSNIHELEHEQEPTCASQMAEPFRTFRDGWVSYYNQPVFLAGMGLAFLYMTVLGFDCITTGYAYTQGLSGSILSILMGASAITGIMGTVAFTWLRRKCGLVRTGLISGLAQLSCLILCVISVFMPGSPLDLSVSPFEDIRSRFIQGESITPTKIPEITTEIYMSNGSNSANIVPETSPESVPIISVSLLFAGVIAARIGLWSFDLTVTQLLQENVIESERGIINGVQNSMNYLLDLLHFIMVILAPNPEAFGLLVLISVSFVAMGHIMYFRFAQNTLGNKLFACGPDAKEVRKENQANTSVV
Experiment: In-vitro ferroportin internalization assay (luciferase reporter)
Type: cell-based
Settings: average pEC50; stably-transfected CHO cell line expressing human ferroportin tagged to a luciferase reporter; 6 h incubation with test compound
Method: The protocol for this assay is generally as described in WO2018/128828, incorporated herein by reference in its entirety. Functional internalization of ferroportin protein was measured using a stably-transfected CHO cell line expressing the human ferroportin tagged to a luciferase reporter. Cells were plated for 24 h in the presence of ferric ammonium citrate (FAC). Ferroportin protein expression was induced with doxycycline for 24 h. The next day, the compounds were added. Test compounds were dissolved in DMSO. Cells were incubated with the test compounds for 6 h, and subsequently luciferase activity was measured using the Nano-Glo Luciferase Assay System and Glomax (Promega, Madison, Wis.). The average pEC50 was determined for the test compounds.

`c1ccc(-c2csc3nc(-c4ccccn4)nc(N4CCOCC4)c23)cc1` [Compound 208, 4-[5-phenyl-2-(pyridin-2-yl)thieno[2,3-d]pyrimidin-4-yl]morpholine] and `O=C1CCN(c2nc(-c3ccccn3)nc3scc(-c4ccccc4)c23)CC1` [Compound 221, 1-[5-phenyl-2-(pyridin-2-yl)thieno[2,3-d]pyrimidin-4-yl]piperidin-4-one] are within 0.2 log units of each other in pEC50: 5.9 for the first, 6 for the second.

`COCC(C)Nc1nc(-c2ccccn2)nc2sc(C)c(-c3ccccc3)c12` (stereo not drawn) [Compound 209, N-(1-methoxypropan-2-yl)-6-methyl-5-phenyl-2-(pyridin-2-yl)thieno[2,3-d]pyrimidin-4-amine] and `COCCNc1nc(-c2ccccn2)nc2scc(-c3ccccc3)c12` [Compound 212, N-(2-methoxyethyl)-5-phenyl-2-(pyridin-2-yl)thieno[2,3-d]pyrimidin-4-amine] are within 0.2 log units of each other in pEC50: 6 for the first, 5.9 for the second.

Compared with `COCCN(CCOC)c1nc(-c2ccccn2)nc2sc(-c3ccccc3)cc12` [Compound 210, N,N-bis(2-methoxyethyl)-6-phenyl-2-(pyridin-2-yl)thieno[2,3-d]pyrimidin-4-amine], `COCCN(CCOC)c1nc(-c2ccccn2)nc2scc(-c3ccccc3)c12` [Compound 211, N,N-bis(2-methoxyethyl)-5-phenyl-2-(pyridin-2-yl)thieno[2,3-d]pyrimidin-4-amine] is higher in pEC50: 6.4 for the first, 6.7 for the second.

Compared with `OCCOCCNc1nc(-c2ccccn2)nc2scc(-c3ccccc3)c12` [Compound 213, 2-(2-{[5-phenyl-2-(pyridin-2-yl)thieno[2,3-d]pyrimidin-4-yl]amino}ethoxy)ethan-1-ol], `OCCNc1nc(-c2ccccn2)nc2scc(-c3ccccc3)c12` [Compound 225, 2-{[5-phenyl-2-(pyridin-2-yl)thieno[2,3-d]pyrimidin-4-yl]amino}ethan-1-ol] is lower in pEC50: 5.7 for the first, 5.3 for the second.

Compared with `CC(=O)N1CCN(c2nc(-c3ccccn3)nc3scc(-c4ccccc4)c23)CC1` [Compound 214, 1-{4-[5-phenyl-2-(pyridin-2-yl)thieno[2,3-d]pyrimidin-4-yl]piperazin-1-yl}ethan-1-one], `OCCN1CCN(c2nc(-c3ccccn3)nc3scc(-c4ccccc4)c23)CC1` [Compound 224, 2-{4-[5-phenyl-2-(pyridin-2-yl)thieno[2,3-d]pyrimidin-4-yl]piperazin-1-yl}ethan-1-ol] is lower in pEC50: 5.8 for the first, 5.3 for the second.

Going from `CC(Nc1nc(-c2ccccn2)nc2scc(-c3ccccc3)c12)C(=O)NC(C)(C)C` (stereo not drawn) [Compound 215, N-tert-butyl-2-{[5-phenyl-2-(pyridin-2-yl)thieno[2,3-d]pyrimidin-4-yl]amino}propanamide] to `CNC(=O)CNc1nc(-c2ccccn2)nc2scc(-c3ccccc3)c12` [Compound 217, N-methyl-2-{[5-phenyl-2-(pyridin-2-yl)thieno[2,3-d]pyrimidin-4-yl]amino}acetamide], the pEC50 falls from 6.8 to 5.3.

Going from `CNC(=O)CCN(C)c1nc(-c2ccccn2)nc2scc(-c3ccccc3)c12` [Compound 216, N-methyl-3-{methyl[5-phenyl-2-(pyridin-2-yl)thieno[2,3-d]pyrimidin-4-yl]amino}propanamide] to `Cc1cc(NC(=O)CN(C)c2nc(-c3ccccn3)nc3scc(-c4ccccc4)c23)no1` [Compound 238, N-(5-methyl-1,2-oxazol-3-yl)-2-{methyl[5-phenyl-2-(pyridin-2-yl)thieno[2,3-d]pyrimidin-4-yl]amino}acetamide], the pEC50 rises from 5.7 to 6.3.

Going from `O=C(CNc1nc(-c2ccccn2)nc2scc(-c3ccccc3)c12)NC1CC1` [Compound 218, N-cyclopropyl-2-{[5-phenyl-2-(pyridin-2-yl)thieno[2,3-d]pyrimidin-4-yl]amino}acetamide] to `CCCNC(=O)CNc1nc(-c2ccccn2)nc2scc(-c3ccccc3)c12` [Compound 219, 2-{[5-phenyl-2-(pyridin-2-yl)thieno[2,3-d]pyrimidin-4-yl]amino}-N-propylacetamide], the pEC50 rises from 5.5 to 6.

First: NC(=O)NCCCCNc1nc(-c2ccccn2)nc2scc(-c3ccccc3)c12 [Compound 220, (4-{[5-phenyl-2-(pyridin-2-yl)thieno[2,3-d]pyrimidin-4-yl]amino}butyl)urea]
Second: CS(=O)(=O)CCNc1nc(-c2ccccn2)nc2scc(-c3ccccc3)c12 [Compound 226, N-(2-methanesulfonylethyl)-5-phenyl-2-(pyridin-2-yl)thieno[2,3-d]pyrimidin-4-amine]
The pEC50 of the first is higher: 6 for the first, 5.8 for the second.

First: OC1CCN(c2nc(-c3ccccn3)nc3scc(-c4ccccc4)c23)CC1 [Compound 222, 1-[5-phenyl-2-(pyridin-2-yl)thieno[2,3-d]pyrimidin-4-yl]piperidin-4-ol]
Second: CN(CCO)c1nc(-c2ccccn2)nc2sc(-c3ccccc3)cc12 [Compound 223, 2-{methyl[6-phenyl-2-(pyridin-2-yl)thieno[2,3-d]pyrimidin-4-yl]amino}ethan-1-ol]
The pEC50 of the first is higher: 6 for the first, 5.6 for the second.

Going from `O=C1C(Nc2cc(C(F)(F)F)nc(-c3ccccn3)n2)CN1c1ccc(F)cc1` (stereo not drawn) [Compound 227, 1-(4-fluorophenyl)-3-{[2-(pyridin-2-yl)-6-(trifluoromethyl)pyrimidin-4-yl]amino}azetidin-2-one] to `O=C1C(Nc2cc(C(F)(F)F)nc(-c3ccccn3)n2)CCN1c1ccccc1` (stereo not drawn) [Compound 228, 1-phenyl-3-{[2-(pyridin-2-yl)-6-(trifluoromethyl)pyrimidin-4-yl]amino}pyrrolidin-2-one], the pEC50 rises from 4.8 to 5.7.

`CCc1cc(NCCN2CCN(CC)CC2)nc(-c2ccccn2)n1` [Compound 230, 6-ethyl-N-[2-(4-ethylpiperazin-1-yl)ethyl]-2-(pyridin-2-yl)pyrimidin-4-amine] and `CCc1cc(NCCNC(=O)NC2CCCCC2)nc(-c2ccccn2)n1` [Compound 234, 1-cyclohexyl-3-(2-{[6-ethyl-2-(pyridin-2-yl)pyrimidin-4-yl]amino}ethyl)urea] are within 0.2 log units of each other in pEC50: 5.3 for the first, 5.4 for the second.

`Cc1cc(NCCc2cccnc2)nc(-c2ccccn2)n1` [Compound 231, 6-methyl-2-(pyridin-2-yl)-N-[2-(pyridin-3-yl)ethyl]pyrimidin-4-amine] and `Cc1cc(NCCC(=O)NCc2ccncc2)nc(-c2ccccn2)n1` [Compound 235, 3-{[6-methyl-2-(pyridin-2-yl)pyrimidin-4-yl]amino}-N-[(pyridin-4-yl)methyl]propanamide] are within 0.2 log units of each other in pEC50: 5.4 for the first, 5.3 for the second.

`Cc1cc(NCCC(=O)N2CCCCCC2)nc(-c2ccccn2)n1` [Compound 232, 1-(azepan-1-yl)-3-{[6-methyl-2-(pyridin-2-yl)pyrimidin-4-yl]amino}propan-1-one] and `Cc1cc(NC[C@@H](O)CN2CCCCC2)nc(-c2ccccn2)n1` [Compound 237, (2R)-1-{[6-methyl-2-(pyridin-2-yl)pyrimidin-4-yl]amino}-3-(piperidine-1-yl)propan-2-ol] are within 0.2 log units of each other in pEC50: 5.5 for the first, 5.4 for the second.

First: Cc1cc(NCCNC(=O)Cc2ccccc2)nc(-c2ccccn2)n1 [Compound 233, N-(2-{[6-methyl-2-(pyridin-2-yl)pyrimidin-4-yl]amino}ethyl)-2-phenylacetamide]
Second: CCc1cc(NC2CN(c3ccccc3)C2=O)nc(-c2ccccn2)n1 (stereo not drawn) [Compound 236, 3-{[6-ethyl-2-(pyridin-2-yl)pyrimidin-4-yl]amino}-1-phenylazetidin-2-one]
The pEC50 of the first is lower: 5.2 for the first, 5.4 for the second.

Compared with `CNC(=O)CN(C)c1nc(-c2ccccn2)nc2sc(-c3ccccc3)cc12` [Compound 239, N-methyl-2-{methyl[6-phenyl-2-(pyridin-2-yl)thieno[2,3-d]pyrimidin-4-yl]amino}acetamide], `Cc1sc2nc(-c3ccccn3)nc(N(C)CC(=O)Nc3cccc(F)c3)c2c1C` [Compound 242, 2-{[5,6-dimethyl-2-(pyridin-2-yl)thieno[2,3-d]pyrimidin-4-yl](methyl)amino}-N-(3-fluorophenyl)acetamide] is higher in pEC50: 5.8 for the first, 7 for the second.

`COCCNc1nc(-c2ccccn2)nc2sc(C)c(C)c12` [Compound 241, N-(2-methoxyethyl)-5,6-dimethyl-2-(pyridin-2-yl)thieno[2,3-d]pyrimidin-4-amine] and `Cc1sc2nc(-c3ccccn3)nc(NCCNc3ccccn3)c2c1C` [Compound 243, N2-[5,6-dimethyl-2-(pyridin-2-yl)thieno[2,3-d]pyrimidin-4-yl]-N1-(pyridin-2-yl)ethane-1,2-diamine] are within 0.2 log units of each other in pEC50: 6.3 for the first, 6.4 for the second.

Molecule `Cc1cc(NCCCn2ccnc2)nc(-c2ccccn2)n1` [Compound 229, N-[3-(1H-imidazol-1-yl)propyl]-6-methyl-2-(pyridin-2-yl)pyrimidin-4-amine] has a pEC50 of less than 5.0.
Molecule `CCNC(=O)CN(C)c1nc(-c2ccccn2)nc2sc(-c3ccccc3)cc12` [Compound 240, N-ethyl-2-{methyl[6-phenyl-2-(pyridin-2-yl)thieno[2,3-d]pyrimidin-4-yl]amino}acetamide] has a pEC50 of less than 5.0.

From patent publication US20230226074A1, “METHODS OF USE FOR PYRIMIDINES AS FERROPORTIN INHIBITORS” (Global Blood Therapeutics, Inc., priority 2020, published 2023)
